Test results reported in US8435978B2, “Substituted sulfonamide compounds” (Gruenenthal GmbH, priority 2006, dated 2013).

Key:
[1] = test system: formalin-induced pain behavior; experiment: Formalin test in the mouse (phase 2, chronic pain component); type: in vivo; conditions: iv, 5 min. before formalin injection, observation 21 to 24 minutes after formalin
Procedure: The formalin test (Dubuisson, D. and Dennis, S. G., 1977, Pain, 4, 161-174) represents a model for both acute and chronic pain. By means of a single formalin injection into the dorsal side of a rear paw, a biphasic nociceptive reaction is induced in freely mobile test animals; the reaction is detected by observing three behaviour patterns which are clearly distinguishable from one another. The reaction is two-phase: phase 1=immediate reaction (duration up to 10 min., shaking of the paw, licking), phase 2=late reaction (after a rest phase; likewise shaking of the paw, licking; duration up to 60 min.). The 1st phase reflects a direct stimulation of the peripheral nocisensors with high spinal nociceptive input (acute pain phase); the 2nd phase reflects a spinal and peripheral hypersensitization (chronic pain phase). In the studies described here, the chronic pain component (phase 2) has been evaluated. Formalin in a volume of 20 μl and a concentration of 1% is administered subcutaneously into the dorsal side of the right rear paw of each animal. The specific changes in behavior, such as lifting, shaking or licking of the paw (score 3, Dubuisson & Dennis, 1977), are observed and recorded in the observation period of 21 to 24 minutes following the formalin injection. The behaviour of the animals after administration of the substance (n=10 per dose of substance) was compared with a control group which received vehicle (n=10). Based on the quantification of the pain behavior, the action of the substance in the formalin test was determined as the change in percent compared with the control. The ED50 calculations (ED50=mean effective dose) were carried out by regression analysis according to the method of Litchfield and Wilcoxon (Litchfield, J. T., Wilcoxon, J. J., 1949, J. Pharmacol. Exp. Ther. 96, 99-113). The time of administration before the formalin injection was chosen in dependence on the mode of administration of the compounds according to the invention (intravenous: 5 min.).

[2] = target: T1, B1R receptor of the rat (Rattus norvegicus, UniProt P97583); experiment: Functional study on the bradykinin receptor 1 (B1R), FLIPR Ca2+ assay, rB1R cells; type: cell-based; conditions: test substance 10 μM; rB1R CHO K1 cells; agonist Des-Arg9-bradykinin 100 nM; % inhibition compared with the maximum achievable inhibition
T1 construct: host or cells: CHO K1 cells (Chinese hamster ovary), stably transfected
T1 sequence (P97583 1-337): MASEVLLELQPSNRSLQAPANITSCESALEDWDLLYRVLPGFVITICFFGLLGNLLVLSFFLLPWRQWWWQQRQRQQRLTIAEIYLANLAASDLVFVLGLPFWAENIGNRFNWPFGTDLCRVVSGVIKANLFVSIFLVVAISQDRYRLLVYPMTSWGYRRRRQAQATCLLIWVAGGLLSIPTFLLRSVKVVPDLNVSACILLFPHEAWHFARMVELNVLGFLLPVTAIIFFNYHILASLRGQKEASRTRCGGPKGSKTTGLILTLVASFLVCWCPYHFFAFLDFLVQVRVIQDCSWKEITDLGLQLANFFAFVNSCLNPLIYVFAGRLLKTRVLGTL
Outline: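 CHO K1 cells stably expressing human or rat B1R were loaded with Fluo-4 and read on a FLIPR (ex 488/em 540 nm, peak fluorescence). Test compounds at 10 μM were added first, then after 10 min agonist: Lys-Des-Arg9-bradykinin 0.5 nM for hB1R, Des-Arg9-bradykinin 100 nM for rB1R; % inhibition versus maximum inhibition.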

B1R Antagonism, rat [10 μM] % Inhibition [2]: 106.6%
Compound: COc1cc(C)c(S(=O)(=O)N2CCCCC2COCC(=O)N2CCN(C3CCN(C)CC3)CC2)c(C)c1 (centres unmarked) [Example 8, 2-[1-(4-methoxy-2,6-dimethyl-phenylsulfonyl)-piperidin-2-ylmethoxy]-1-[4-(1-methyl-piperidin-4-yl)-piperazin-1-yl]-ethanone]
ED50 [1]: 12.8 mg/kg
